Legend:
Assay type in all cases: in vivo
[1] = TMAO content in barley leaves by NMR after TMAO spray; details: 1 g/l spray formulated with 0.1% C8-C10 Alkylpolysaccharide, 1 day post spray
Description: (§1) For each wilting or limited water experiment 480 seeds (of either pepper, barley, tomato, cucumber or corn) were sown, producing 384 plants in 512 cm^3 pots (4 plants per pot). Plants were grown under chamber conditions at 21° C. for 3 weeks. Then, the plants were moved to a greenhouse, where average temperature was 25° C. to 28° C. Treatments as described herein were done when the plants had two extended leaves and the next pair of leaves were coming up.
(§2) TMAO content in plants was determined by harvesting three leaves per treatment and freezing them in liquid nitrogen before the NMR determination. At least three independent plants were treated per experiment.
(§3) TMAO accumulates in pepper and barley when applied exogenously. ‘Murano’ pepper seeds and ‘Bomi’ barley seeds were sown and grown as described above. Control plants (six weeks old) were sprayed with water and pepper treated plants were sprayed with 1 g/l of TMAO while barley plants were sprayed with 1 g/l of TMAO formulated with 0.1% of C8-C10 Alkylpolysaccharide. Leaves were harvested and TMAO was determined by NMR. The percentage of TMAO increase compared to untreated controls was determined for each time point. TMAO levels increase in pepper and barley with exogenous treatment of TMAO at 1 g/l to higher levels than drought treatment and furthermore, the TMAO levels are high up to 40 days post spray in pepper.

Moneymaker tomato = test: Tomato plant survival under extreme drought; details: higher test rates, both treatments (sprayed or watered)
Description: as §1
Twelve (12) pots (containing 48 plants) were irrigated with 40 ml of either: water, 0.1 g/L TMAO di-hydrate solution, 1.0 g/L TMAO di-hydrate solution, or 5.5 g/L TMAO di-hydrate solution. […]
(§4) After the treatments described above, the plants were not watered until the pots completely lost their moisture, taking about 4 to 8 days depending on the season, at which point the plants were extremely wilted for the extreme drought experiments. […] The plant survival rate was recorded and analyzed for the “extreme drought” experiments in which plants were allowed to wilt severely before watering, while the stem length was recorded as analyzed for the limited water experiments in which the plants are watered with 30% of the water that the plant requires. […]

[2] = TMAO content in pepper leaves by NMR after TMAO spray; details: 1 g/l spray
Description: as §1, §2, §3

'Bomi' barley = test: Barley dry weight under drought / limited water irrigation; details: drought growing conditions
Description: as §1
Twelve (12) pots (containing 48 plants) were irrigated with 40 ml of either: water, 0.1 g/L TMAO di-hydrate solution, 1.0 g/L TMAO di-hydrate solution, or 5.5 g/L TMAO di-hydrate solution. Another set of 12 pots containing 48 plants were sprayed with 40 ml of either water (3.3 ml in average per pot), a solution containing 0.1 g/L TMAO di-hydrate solution, 1.0 g/L TMAO di-hydrate, or 5.5 g/L TMAO di-hydrate. All pots were also watered with 40 ml of water. The sprayed plants were watered with the same volume of water as the “irrigated plants) The pots were located on plastic glass to maintain constant moisture and to avoid liquid spillage during watering. Trays containing the pots were located on greenhouse tables. The distribution of the trays on the table and the position on the pots in the tray was changed every week to avoid position effects.
as §4

[3] = test system: tomato 'Moneymaker' seeds; test: Tomato seed germination under PEG-6000 simulated drought; details: 10 days
Description: In order to determine the drought or water stress tolerance after seed treatments with TMAO di-hydrate and germination in the presence of TMAO di-hydrate, tomato ‘Moneymaker’ seeds were surface sterilized for 3 minutes in ethanol 70%, then rinsed twice and finally included in a pre-treatment solution of 0.1 g/L TMAO di-hydrate solution (or just water) under shaking for 3 hours. Then, they were rinsed and included in the germination plates under sterile conditions. Polyethylene glycol (PEG-6000) was added to the germination medium (Murashige and Skoog salts medium) at 152 and 182 g/L. The increasing amount of PEG reduces ψ (hydric potential) values, simulating drought conditions for germination. Each germination plate had at least 30 seeds, and each treatment/pretreatment plate was replicated five times (150 seeds per treatment/pretreatment). Seeds were left to germinate for 10 days under dark conditions in a culture chamber (21° C. light and 20° C. night, 65% humidity). Then, germinated seeds were recorded by visual inspection and data analysis was performed using Statgraphics software.
TMAO di-hydrate applied exogenously increases germination both in pre-treatment of the seeds and as an additive to the medium. Tomato ‘Moneymaker’ seeds were sown, grown and treated as described above.

'Rio Grande' tomato = test: Tomato fruit production under limited water irrigation; details: 30% water irrigation, 1 g/L TMAO spray every 4 weeks
Description: as §1
(§5) After the treatments described above, the plants were not watered until the pots completely lost their moisture, taking about 4 to 8 days depending on the season, at which point the plants were extremely wilted for the extreme drought experiments. The plants were then watered once with solutions containing the different amounts of TMAO di-hydrate described above (0.1 g/L, 1.0 g/L or 5.5 g/L) or just water, after which the plants were left to lose their moisture completely again for three consecutive cycles of watering after wilting. […] The plant survival rate was recorded and analyzed for the “extreme drought” experiments in which plants were allowed to wilt severely before watering, while the stem length was recorded as analyzed for the limited water experiments in which the plants are watered with 30% of the water that the plant requires. […]

'TAO700' corn [4] = test: Corn number of grains per cob under limited water irrigation; details: 30% water, 1 g/L (Table 13 row 4)
Description: as §1, §5

'Murano' pepper = test: Pepper plant survival under extreme drought; details: 10 g/L and 1 g/L sprayed, irrigation with water (as worded)
Description: as §1
Twelve (12) pots (containing 48 plants) were irrigated with 40 ml of either: water, 0.1 g/L TMAO di-hydrate solution, 1.0 g/L TMAO di-hydrate solution, or 5.5 g/L TMAO di-hydrate solution. […] All pots were also watered with 40 ml of water. […]
as §4

[5] = test system: 'Sabrina', 'Candonga' and 'Fortuna' variety strawberry plants; test: Strawberry fruit production under normal conditions (trade-off test); details: no water stress; for Strawberry fruit production % Control: 1 g/L spray every 4 weeks for 3 months
Description: In order to determine the plant fruit productivity under normal conditions, ‘Sabrina’, ‘Candonga’ and ‘Fortuna’ variety strawberry plants were grown under standard strawberry production conditions and 120 plants of each variety per treatment (where the treatment was a Control comprising standard watering or 1 g/L of TMAO spray every four weeks) were analyzed. Plants were located in four (4) different positions for each group of 30 plants from the same treatment. Fruits were harvested from individual plants and total weight was determined for each plant.
Fruit yield was determined in ‘Sabrina’, ‘Candonga’ and ‘Fortuna’ strawberry plants treated with 1 g/l of TMAO di-hydrate or water as described above in order to evaluate the trade-off costs of the treatment with no water stress.

'TAO700' corn [6] = test: Corn total chlorophyll content under limited water irrigation; details: 30% water
Description: as §1, §5

'FAO700' corn = test: Corn number of green leaves under limited water irrigation; details: 30% water, 1 g/L (Table 11 rows 3 and 4)
Description: as §1, §5

With C[N+](C)(C)[O-] [TMAO, Trimethylamine N-oxide] the “TMAO accumulation % Control” value [1] was 822 % Control, the “shoot dry mass compared with untreated plants” value (Moneymaker tomato) was “clear increase” and the “TMAO accumulation % Control” value ([2]; 1 day post spray, vs water-sprayed control) was 529 % Control. For the same compound, the “TMAO accumulation % Control” value ([2]; 10 days post spray) was 373 % Control, the “TMAO accumulation % Control” value ([2]; 20 days post spray) was 286 % Control and the “TMAO accumulation % Control” value ([2]; 30 days post spray) was 135 % Control. The “TMAO accumulation % Control” value ([2]; 40 days post spray) was 213 % Control, the “AVERAGE DRY WEIGHT” value ('Bomi' barley; initial treatment 1 g/L sprayed solution, irrigations water) was 1205.4 ± 60.37 mg and the “AVERAGE DRY WEIGHT” value ('Bomi' barley; initial treatment 1 g/L watered solution, irrigations water) was 1371.4 ± 66.13 mg. For the same compound, the “AVERAGE DRY WEIGHT” value ('Bomi' barley; irrigations 1 g/L solution, initial treatments pooled) was 1216.1 ± 33.44 mg, the “GERMINATION RATE” value ([3]; PEG 152 g/L (ψ −0.2564), 0.1 g/L in the germination medium) was 71.09 ± 4.26% and the “GERMINATION RATE” value ([3]; PEG 152 g/L (ψ −0.2564), seed pre-treatment 0.1 g/L solution 3 hours) was 70.62 ± 4.62%. The “GERMINATION RATE” value ([3]; PEG 182 g/L (ψ −0.3676), 0.1 g/L in the germination medium) was 45.00 ± 3.20%, the “GERMINATION RATE” value ([3]; PEG 182 g/L (ψ −0.3676), seed pre-treatment 0.1 g/L solution 3 hours) was 18.53 ± 3.20% and the “AVERAGE WEIGTH (grams/fruit)” value ('Rio Grande' tomato) was 76.73 ± 17.67 grams/fruit. The “increase in total number of grains per corn cob compared to 100% irrigation” value ('TAO700' corn [4]) was 2%, the plant survival ('Murano' pepper) was 83.3% and the “difference in fruit production vs water” value ([5]; 1 g/l, three strawberry varieties) was “no significant difference”. For the same compound, the “Strawberry fruit production % Control” value ([5]; Candonga) was 102 % Control, the “Strawberry fruit production % Control” value ([5]; Fortuna) was 101 % Control and the “Strawberry fruit production % Control” value ([5]; Sabrina) was 106 % Control. For the same compound, the “Strawberry fruit production % Control” value ([5]; Total of the three varieties) was 105 % Control, the “TOTAL CHLOROPHYL CONTENT” value ('TAO700' corn [6]; 1 g/L TMAO seed treatment) was 0.8977 ± 0.195 and the “TOTAL CHLOROPHYL CONTENT” value ('TAO700' corn [6]; 1 g/L TMAO spray) was 0.7278 ± 0.076. For the same compound, the “increase in green leaf production over untreated plants with 30% irrigation” value ('FAO700' corn) was 47%.
